Test results from patent US9708314B2, “Heterocyclic amide compound” (NISSAN CHEMICAL INDUSTRIES, LTD., priority 2013, dated 2017).

Legend:
[1] = system: Echinochloa oryzacola Vasing.; experiment: Test Example 1: herbicidal activity, application before weed generation in submerged conditions; format: in vivo; conditions: Seventeenth Table; for A: Echinochloa oryzicola Vasing. (herbicidal effect grade): Application herbicide amount 320 g/ha; for A (Echinochloa oryzicola Vasing.) herbicidal ratio grade: application herbicide amount 320 g/ha
In short: (§1)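 Water-diluted emulsion formulation is applied onto flood water (4 cm deep) covering alluvial soil on the day weed seeds are sown, after transplanting 2.5 leaf stage rice. Rates are expressed per hectare. Injury or control is graded 0–5 three weeks later.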

Scirpus juncoides = experiment: as above; format: in vivo; conditions: Seventeenth Table; for B: Scirpus juncoides (herbicidal effect grade): Application herbicide amount 320 g/ha; for B (Scirpus juncoides) herbicidal ratio grade: application herbicide amount 320 g/ha
In short: as §1

Monochoria vaginalis = experiment: as above; format: in vivo; conditions: Seventeenth Table; for C: Monochoria vaginalis (herbicidal effect grade): Application herbicide amount 320 g/ha; for C (Monochoria vaginalis) herbicidal ratio grade: application herbicide amount 320 g/ha
In short: as §1

Structure (SMILES) | A: Echinochloa oryzicola Vasing. (herbicidal effect grade) [1] | B: Scirpus juncoides (herbicidal effect grade) (Scirpus juncoides) | C: Monochoria vaginalis (herbicidal effect grade) (Monochoria vaginalis) | melting point | A (Echinochloa oryzicola Vasing.) herbicidal ratio grade [1] | B (Scirpus juncoides) herbicidal ratio grade (Scirpus juncoides) | C (Monochoria vaginalis) herbicidal ratio grade (Monochoria vaginalis)
CC(C)c1nnc2c(C(=S)Nc3nnnn3C)ccc(C(F)(F)F)n12 [2-039, 3-Isopropyl-N-(1-methyl-1H-tetrazol-5-yl)-5-(trifluoromethyl)-[1,2,4]triazolo[4,3-a]pyridine-8-carbothioamide] | 5 (Herbicidal ratio of 90% or more (almost completely withered)) | 5 (Herbicidal ratio of 90% or more (almost completely withered)) | 5 (Herbicidal ratio of 90% or more (almost completely withered)) | 198 to 200 °C |  |  | 
CCN(CC)c1nnc2c(C(=O)Nc3nnnn3C)ccc(C(F)(F)F)n12 [2-089] | 5 (Herbicidal ratio of 90% or more (almost completely withered)) | 5 (Herbicidal ratio of 90% or more (almost completely withered)) | 5 (Herbicidal ratio of 90% or more (almost completely withered)) |  |  |  | 
CCCn1nnnc1NC(=O)c1ccc(C(F)(F)F)n2c(C(C)C)nnc12 [2-090] | 5 (Herbicidal ratio of 90% or more (almost completely withered)) | 5 (Herbicidal ratio of 90% or more (almost completely withered)) | 5 (Herbicidal ratio of 90% or more (almost completely withered)) |  |  |  | 
C=CCn1nnnc1NC(=O)c1ccc(C(F)(F)F)n2c(C(C)C)nnc12 [2-091] | 5 (Herbicidal ratio of 90% or more (almost completely withered)) | 5 (Herbicidal ratio of 90% or more (almost completely withered)) | 5 (Herbicidal ratio of 90% or more (almost completely withered)) |  |  |  | 
CC(C)c1nnc2c(C(=O)Nc3nnnn3Cc3ccc(Cl)cc3)ccc(C(F)(F)F)n12 [2-093] | 5 (Herbicidal ratio of 90% or more (almost completely withered)) | 5 (Herbicidal ratio of 90% or more (almost completely withered)) | 4 (Herbicidal ratio of 70% or more and less than 90%) |  |  |  | 
C#CCN(C)c1nnc2c(C(=O)Nc3nnnn3C)ccc(C(F)(F)F)n12 [2-094] | 5 (Herbicidal ratio of 90% or more (almost completely withered)) | 5 (Herbicidal ratio of 90% or more (almost completely withered)) | 5 (Herbicidal ratio of 90% or more (almost completely withered)) |  |  |  | 
CN(CCC#N)c1nnc2c(C(=O)Nc3nnnn3C)ccc(C(F)(F)F)n12 [2-095] | 5 (Herbicidal ratio of 90% or more (almost completely withered)) | 5 (Herbicidal ratio of 90% or more (almost completely withered)) | 5 (Herbicidal ratio of 90% or more (almost completely withered)) |  |  |  | 
COc1ccc(N(C)c2nnc3c(C(=O)Nc4nnnn4C)ccc(C(F)(F)F)n23)cc1 [2-099] |  |  |  |  | 5 (Herbicidal ratio of 90% or more (almost completely withered)) | 4 (Herbicidal ratio of 70% or more and less than 90%) | 5 (Herbicidal ratio of 90% or more (almost completely withered))
C=CCN(C)c1nnc2c(C(=O)Nc3nnnn3C)ccc(C(F)(F)F)n12 [2-100] |  |  |  |  | 5 (Herbicidal ratio of 90% or more (almost completely withered)) | 5 (Herbicidal ratio of 90% or more (almost completely withered)) | 5 (Herbicidal ratio of 90% or more (almost completely withered))
COCCSc1nnc2c(C(=O)Nc3nnnn3C)ccc(C(F)(F)F)n12 [2-101] |  |  |  |  | 5 (Herbicidal ratio of 90% or more (almost completely withered)) | 5 (Herbicidal ratio of 90% or more (almost completely withered)) | 5 (Herbicidal ratio of 90% or more (almost completely withered))
C=CCSc1nnc2c(C(=O)Nc3nnnn3C)ccc(C(F)(F)F)n12 [2-102] |  |  |  |  | 5 (Herbicidal ratio of 90% or more (almost completely withered)) | 5 (Herbicidal ratio of 90% or more (almost completely withered)) | 4 (Herbicidal ratio of 70% or more and less than 90%)
C#CCSc1nnc2c(C(=O)Nc3nnnn3C)ccc(C(F)(F)F)n12 [2-103] |  |  |  |  | 5 (Herbicidal ratio of 90% or more (almost completely withered)) | 4 (Herbicidal ratio of 70% or more and less than 90%) | 5 (Herbicidal ratio of 90% or more (almost completely withered))
CC#Cc1nnc2c(C(=O)Nc3nnnn3C)ccc(C(F)(F)F)n12 [2-106] |  |  |  |  | 5 (Herbicidal ratio of 90% or more (almost completely withered)) | 3 (Herbicidal ratio of 40% or more and less than 70%) | 4 (Herbicidal ratio of 70% or more and less than 90%)
CC(=O)OCc1nnc2c(C(=O)Nc3nnnn3C)ccc(C(F)(F)F)n12 [2-107] |  |  |  |  | 2 (Herbicidal ratio of 20% or more and less than 40%) | 3 (Herbicidal ratio of 40% or more and less than 70%) | 2 (Herbicidal ratio of 20% or more and less than 40%)
Cn1nnnc1NC(=O)c1ccc(C(F)(F)F)n2c(CO)nnc12 [2-108] |  |  |  |  | 4 (Herbicidal ratio of 70% or more and less than 90%) | 3 (Herbicidal ratio of 40% or more and less than 70%) | 2 (Herbicidal ratio of 20% or more and less than 40%)
Cn1nnnc1NC(=O)c1ccc(C(F)(F)F)n2c(C3(C)CC3(Cl)Cl)nnc12 (stereo not shown) [2-110] |  |  |  |  | 5 (Herbicidal ratio of 90% or more (almost completely withered)) | 5 (Herbicidal ratio of 90% or more (almost completely withered)) | 5 (Herbicidal ratio of 90% or more (almost completely withered))
Cn1nnnc1NC(=O)c1ccc(C(F)(F)F)n2c(=O)n(C)nc12 [6-002] |  |  |  |  | 4 (Herbicidal ratio of 70% or more and less than 90%) | 3 (Herbicidal ratio of 40% or more and less than 70%) | 2 (Herbicidal ratio of 20% or more and less than 40%)
CCn1nc2c(C(=O)Nc3nnnn3C)ccc(C(F)(F)F)n2c1=O [6-004] |  |  |  |  | 0 (Herbicidal ratio of 5% or less (almost no effect)) | 0 (Herbicidal ratio of 5% or less (almost no effect)) | 2 (Herbicidal ratio of 20% or more and less than 40%)
Cc1nnc(NC(=O)c2ccc(C(F)(F)F)n3nc(C(C)C)nc23)o1 [7-001] |  |  |  |  | 0 (Herbicidal ratio of 5% or less (almost no effect)) | 2 (Herbicidal ratio of 20% or more and less than 40%) | 4 (Herbicidal ratio of 70% or more and less than 90%)
CC(C)c1nc2c(C(=O)Nc3nnnn3C)ccc(C(F)(F)F)n2n1 [7-002] |  |  |  |  | 3 (Herbicidal ratio of 40% or more and less than 70%) | 3 (Herbicidal ratio of 40% or more and less than 70%) | 4 (Herbicidal ratio of 70% or more and less than 90%)
